Consider five compounds from US20050038058A1, “Novel compounds and methods for therapy” (Institute of Organic Chemistry and Biochemistry, priority 2001, published 2005).

≈ marks a conversion by molar mass, not a printed value. Where two headings read alike, the source gives them in different places.

One series relates to CEM cells. Description: Inhibition of CEM cell growth (cytostatic activity). The format is cell-based. Here is the method:
(§1) Cytostatic and antimetabolic effect of acyclic nucleoside phosphonates in vitro. The assays to examine the inhibition of CEM cell growth by the test compounds have been described previously (Balzarini et al., AIDS 5:21-28, 1991). The 50% cytostatic concentration (CC50) was defined as the concentration of compound that reduced the number of living cells by 50% . To measure MT-4 cell toxicity of the test compounds, 5×10^4 MT-4 cells were incubated in the wells of 96-well microplates in the presence or absence of different concentrations of the test compounds for 5 days at 37° C. The CC50 was then calculated from the number of living cells counted under a microscope by the trypan blue exclusion method.

Series [1] has as its system HIV-1(IIIB). Description: HIV-1(IIIB)-induced cytopathicity in CEM cell cultures. The format is cell-based. The text has this:
(§2) Viruses. The origins of MSV, HIV type 1 (HIV-1) (strain IIIB and Ba-L), HIV-2 (strain ROD) and FIV (strain Petaluma) have been described previously (Balzarini et al., AIDS 5: 21-28, 1991; De Clercq et al., Proc. Soc. Exp. Biol. Med. 137:590-594, 1971; Egberink et al., Proc. Natl. Acad. Sci. 87:3087-3091, 1990; Hartmann et al., Antiviral Chem. Chemother. 5:13-19, 1994; Popovic et al., Science 224:497-500, 1984). HIV-1(IIIB) and HIV-2(ROD) stocks were obtained from supernatants of virus-infected MT-4 cell cultures. HIV-1BaL was expanded in human primary M/M, whose supernatants were collected, filtered and stored at −80° C. before use. Characteristics of viral stocks used for this study were 2.1×10^8 HIV-RNA genomes/ml (corresponding to 35 ng of p24 antigen) and 5,000 tissue culture infectious doses 50% per ml (TCID50/ml) as assessed by virus titration in other primary M/M cultures. The isolation and characterization of the clinical HIV-1 isolates L1S, L6S and L6S/PMEA has been reported (Thormar et al., Proc. Natl. Acad. Sci. USA 93:3283-3287, 1995; Van Laethem et al., AIDS 15:553-561, 2001). […] HIV-1/L6S/PMEA is the clinical isolate HIV-1/L6S that has been isolated after culturing the virus for 11 passages in the presence of increasing concentrations of PMEA (adefovir).
(§3) In vitro antiviral assays. The activity against HIV-1- and HIV-2-induced cytopathicity was examined in MT-4 cell cultures at day 5 post infection and based on the determination of cell viability by trypan blue dye staining or in CEM cell cultures at day 4 to 5 post infection and based on the microscopical examination of virus-induced giant cell formation. HIV-1 and HIV-2 were added at 100 CCID50 to the cell cultures.

The nature of series [2]: Inhibition of CEM cell growth (cytostatic activity). The format is cell-based. The settings on record: human, CEM cells. As for the experimental part:
as §1

The nature of series [3]: Alteration of C3H cell morphology (minimal inhibitory concentration). The format is cell-based, murine. The following applies: mouse, C3H/3T3 embryo fibroblast cells; microscopically visible alteration of cell morphology; > means no visible toxicity at the indicated concentration; read-out: CC50 C3H (minimal inhibitory concentration).
Series [4] relates to MSV. Description: MSV-induced transformation of murine embryo fibroblast C3H/3T3 cell cultures. The series is classed as cell-based. The settings on record: Mus musculus. Here is the method: The inhibitory effect of the test compounds on MSV-induced transformation of murine embryo fibroblast C3H/3T3 cell cultures was examined microscopically at day 6 post infection. MSV was added at 75 focus-forming units to the cell cultures. The detailed procedures for the antiretroviral evaluations has been described in detail before (Balzarini et al., AIDS 5:21-28, 1991; Balzarini et al., Antimicrob. Agents Chemother. 37:332-338, 1993; De Clercq et al., Proc. Soc. Exp. Biol. Med. 137:590-594, 1971).

Series [5] relates to HIV-2(ROD). The series can be described thus: HIV-2(ROD)-induced cytopathicity in MT-4 cell cultures. The format is cell-based. The following applies: Human immunodeficiency virus 2, MT4, read-out: EC50 HIV-2 (ROD) (MT-4).
Text: as §2, §3

In series [6] the test system is HIV-2(ROD). The series can be described thus: HIV-2(ROD)-induced cytopathicity in CEM cell cultures. The series is classed as cell-based. The settings on record: Human immunodeficiency virus 2, CCRF-CEM, read-out: EC50 HIV-2 (ROD) (CEM).
Text: as §2, §3

The test system of series [7] is HIV-1(IIIB). The series can be described thus: HIV-1(IIIB)-induced cytopathicity in MT-4 cell cultures. The format is cell-based. The settings on record: Human immunodeficiency virus 1, IIIB, MT4; Table 2.
Text: as §2, §3

A short description of series [8]: MT-4 cell toxicity (trypan blue exclusion). The series is classed as cell-based. The settings on record: human, MT-4 cells; reduction of cell viability; Table 2. As for the experimental part:
as §1

A further series has as its system HSV-1 TK- VMW 1837. Description: Antiviral activity, HSV-1 TK- VMW 1837, Table 1a. The format is cell-based.
A further series relates to HSV-1 (KOS). The series can be described thus: Antiviral activity, HSV-1 (KOS), Table 1a. The series is classed as cell-based.
Series [9] concerns MSV. The series can be described thus: Antiviral activity, MSV, Table 1a. The format is cell-based.
For the next series, the system named is VZV TK − 07/1. Description: Antiviral activity, VZV TK- 07/1, Table 1a. The format is cell-based.
In the next series the test system is HIV-2. Description: Antiviral activity, HIV-2, Table 1a. The series is classed as cell-based.
The test system of the next series is HSV-2 (G). The series can be described thus: Antiviral activity, HSV-2 (G), Table 1a. The series is classed as cell-based.
For series [10], the system named is HIV-1.
In another series the test system is VZV TK + OKA. Description: Antiviral activity, VZV TK+ OKA, Table 1a. The format is cell-based.
The next series relates to CMV Davis. The series can be described thus: Antiviral activity, CMV Davis, Table 1a. The series is classed as cell-based.
For the next series, the system named is VZV TK + YS. Description: Antiviral activity, VZV TK+ YS, Table 1a. The format is cell-based.
The subject of a further series is CMV AD-169. The series can be described thus: Antiviral activity, CMV AD-169, Table 1a. The format is cell-based.
A further series concerns VZV TK − YS/R. The series can be described thus: Antiviral activity, VZV TK- YS/R, Table 1a. The format is cell-based.
Series [11] concerns HIV-1. The series can be described thus: microbe, parasite or virus in culture. The following applies: Human immunodeficiency virus 1, read-out: Antiviral Activity EC50 HIV-1.

Regarding `Nc1nc(N)c(Br)c(OCCOCP(=O)(O)O)n1` [5-bromo-derivative of 1, 2,4-Diamino-5-bromo-6-[2-(phosphonomethoxy)ethoxy]pyrimidine], the melting point was 218 °C. Further, in the series with CEM cells (100 μg/mL), the “Cytotoxicity at 100 μg/mL” value is on record as “not toxic”. Besides, the “Concentration at which active against HIV-1 in CEM cell cultures” value in the series with HIV-1(IIIB) [1] is 2.5 µg/mL.
On to `Nc1nc(O)cc(OCCOCP(=O)(O)O)n1` [Compound 4, 2-amino-4-hydroxy-6-[2-(phosphonomethoxy)ethoxy]pyrimidine], for which the CC50 in series [2] (50% cytostatic concentration, CEM cell proliferation, Table 1, read-out: CC50 (CEM)) was determined as 2.5 µg/mL (≈ 9.43 µM); in [2] (inhibition of cell proliferation, Table 2, read-out: CC50 CEM), 2.5 ± 0.2 µg/mL (≈ 9.43 µM); in series [2] (read-out: CC50 for CEM cells), 2.5 µg/mL (≈ 9.43 µM). In addition, in series [3], the Minimal concentration causing visible cell morphology alteration was ≥ 16 µg/mL. The EC50 was 0.05 to 0.15 µg/mL (≈ 0.189 to 0.566 µM) in the series with MSV [4] (C3H, read-out: EC50 against MSV-induced C3H cell transformation); 0.08 ± 0.03 µg/mL (≈ 0.302 µM) in the series with MSV [4] (MSV-induced C3H cell transformation, Table 2, read-out: EC50 MSV (C3H)); 2.1 µg/mL (≈ 7.92 µM) in the series with HIV-2(ROD) [5]; 1.4 ± 1.2 µg/mL (≈ 5.28 µM) in the series with HIV-2(ROD) [6]; 1.9 ± 0.4 µg/mL (≈ 7.17 µM) with HIV-1(IIIB) [7]; 1.4 ± 0.71 µg/mL (≈ 5.28 µM) in the series on HIV-1(IIIB) [1] (Human immunodeficiency virus 1, CCRF-CEM, HIV-1 (IIIB) in CEM, no addition, Table 3, read-out: EC50 as such). For the same compound, the EC50 in the series with HIV-1(IIIB) [1] (Human immunodeficiency virus 1, CCRF-CEM, HIV-1 (IIIB) in CEM, Ade 100 μM, read-out: EC50 upon addition of Ade (100 μM)) came out at 1.7 ± 1.2 µg/mL (≈ 6.41 µM); in the series with HIV-1(IIIB) [1] (Human immunodeficiency virus 1, CCRF-CEM, HIV-1 (IIIB) in CEM, Ado 400 μM, read-out: EC50 upon addition of Ado (400 μM)) it was 1.4 ± 0.93 µg/mL (≈ 5.28 µM); in the series on HIV-1(IIIB) [1] (Human immunodeficiency virus 1, CCRF-CEM, HIV-1 (IIIB) in CEM, Guo 10 μM, read-out: EC50 upon addition of Guo (10 μM)) it was 1.9 ± 0.92 µg/mL (≈ 7.17 µM); with HIV-1(IIIB) [1] (Human immunodeficiency virus 1, CCRF-CEM, HIV-1 (IIIB) in CEM, dCyd 1 mM, read-out: EC50 upon addition of dCyd (1 mM)) it was 2.4 ± 1.9 µg/mL (≈ 9.05 µM); in the series on HIV-1(IIIB) [1] (Human immunodeficiency virus 1, CCRF-CEM, HIV-1 (IIIB) in CEM, dThd 10 μM, read-out: EC50 upon addition of dThd (10 μM)), 1 ± 0.3 µg/mL (≈ 3.77 µM); with HIV-1(IIIB) [1] (Human immunodeficiency virus 1, CCRF-CEM, HIV-1(IIIB)-induced cytopathicity in CEM cell cultures, Table 1, read-out: EC50 HIV-1 (CEM)), 2.2 µg/mL (≈ 8.3 µM). Moreover, the EC50 with HIV-1(IIIB) [1] (Human immunodeficiency virus 1, IIIB, CCRF-CEM, giant cell formation, mean ±SD of 2 to 4 experiments, Table 2, read-out: EC50 HIV-1 (IIIB) (CEM)) is 1.4 ± 0.7 µg/mL (≈ 5.28 µM). For the same compound, half-maximal cytotoxicity in [8] (CC50 at 5 days) was put at 10 ± 2.2 µg/mL (≈ 37.7 µM).
As to `C[C@@H](COc1cc(N)nc(N)n1)OCP(=O)(O)O` [Compound 10, 2,4-diamino-6-(S)-[2-(phosphonome-thoxy)propoxy]pyrimidine], the “Antiviral Activity EC50 HSV-1 TK- VMW 1837” value with HSV-1 TK- VMW 1837 is >80 µg/mL. Further, the “Antiviral Activity EC50 HSV-1 (KOS)” value in the series on HSV-1 (KOS) was >80 µg/mL. The “Antiviral Activity EC50 MSV” value in the series on MSV [9] came to 6.1 µg/mL. In addition, the “Antiviral Activity EC50 VZV TK − 07/1” value in the series with VZV TK − 07/1 was >50 µg/mL. In addition, the “CC50 (CEM)” value with CEM cells (50% cytostatic concentration, CEM cell proliferation, Table 1) was >100 µg/mL. In the series on HIV-2, the “Antiviral Activity EC50 HIV-2” value is 33 µg/mL. Besides, the “Antiviral Activity EC50 HSV-2 (G)” value with HSV-2 (G) was >80 µg/mL. Moreover, the “Antiviral Activity EC50 HIV-1” value in the series with HIV-1 [10] amounted to 51 µg/mL. Moreover, in the series on VZV TK + OKA, the “Antiviral Activity EC50 VZV TK + OKA” value was >50 µg/mL. The “Antiviral Activity EC50 CMV Davis” value in the series with CMV Davis was >50 µg/mL. Besides, the “Antiviral Activity EC50 VZV TK + YS” value in the series with VZV TK + YS was >50 µg/mL. The “Antiviral Activity EC50 CMV AD-169” value in the series with CMV AD-169 was >50 µg/mL. Moreover, the “Antiviral Activity EC50 VZV TK − YS/R” value in the series with VZV TK − YS/R was >50 µg/mL. Moreover, in the series with HIV-1(IIIB) [1] (HIV-1(IIIB)-induced cytopathicity in CEM cell cultures, Table 1), the “EC50 HIV-1 (CEM)” value stood at 51 µg/mL (≈ 183 µM).
As to `Cc1cc(OCCOCP(=O)(O)O)nc(N)n1` [Compound H-3453], the EC50 with HSV-1 TK- VMW 1837 (Human alphaherpesvirus 1, read-out: Antiviral Activity EC50 HSV-1 TK- VMW 1837) is > 400 µg/mL; in the series on HSV-1 (KOS) (Human alphaherpesvirus 1) it was > 400 µg/mL; with MSV [9], 89.4 ± 37.6 µg/mL (≈ 340 µM); in the series on VZV TK − 07/1 (Human alphaherpesvirus 3, read-out: Antiviral Activity EC50 VZV TK − 07/1), > 50 µg/mL; in the series on HIV-2 (Human immunodeficiency virus 2), > 100 µg/mL; in the series on HSV-2 (G) (Human alphaherpesvirus 2), > 400 µg/mL. Besides, the EC50 was > 50 µg/mL in the series on VZV TK + OKA (Human alphaherpesvirus 3, read-out: Antiviral Activity EC50 VZV TK + OKA); > 50 µg/mL in the series with CMV Davis (Human betaherpesvirus 5); > 50 µg/mL with VZV TK + YS (Human alphaherpesvirus 3); > 50 µg/mL in the series with CMV AD-169 (Human betaherpesvirus 5, AD169); > 100 µg/mL in the series with HIV-1 [11]; > 50 µg/mL in the series with VZV TK − YS/R (Human alphaherpesvirus 3, read-out: Antiviral Activity EC50 VZV TK − YS/R).
As for `Nc1nc(OCCOCP(=O)(O)O)cc(OCCOCP(=O)(O)O)n1` [Example 10, 2-Amino-4,6-bis[2-(phosphonomethoxy)ethoxy]pyrimidine], the melting point was 108 °C.
